# In PMC6412891, “Synthesis and Biological Evaluation of Novel Thiazolyl-Coumarin Derivatives as Potent Histone Deacetylase Inhibitors with Antifibrotic Activity” (Molecules, 2019):
# How the values were obtained:
# [1] = test system: HDACs HeLa cells nuclear extract; assay: HDAC inhibitory activity, fluorometric kit, HeLa cell nuclear extract; type: biochemical, human; settings: HeLa cell nuclear extract as HDAC source
# α-SMA expression in CFs = assay: α-SMA expression levels in cardiac fibroblasts, western blot; type: cell-based, rat; settings: derivatives 5 μM (TSA 0.1 μM) for 48 h in presence of TGF-β1
# Experimental: For this purpose, a fixed concentration of 5a, 6a, 7a and 8a derivatives in the presence/absence of TGF–β1 (a strong inducer of CFs–to–CMFs differentiation), was studied, and α–SMA expression levels were measured by using the western blot technique. TSA was used as a control and also for comparative purposes.
# (§1) For the analysis of the protein expression of histone H4–acetylated (ac–H4) and total H4 histone, a number of 1 × 10^6 of CFs seeded in 60 mm plates was used, which were incubated with the inhibitory compounds at a concentration of 10 μM, in the absence/presence of TGF–β1(5ng/mL) for 4 h. Subsequently, total histones were extracted by the technique of saline precipitation (high salt extraction). Briefly, CFs were scraped from the plates with 1 mL of cold PBS transferring their contents to Eppendorf tubes to be centrifuged for 60 s at 1500 rpm at 4 °C and re–suspended in 400 μL of cold buffer A (10 mM 4-(2-hydroxyethyl)-1-piperazineethanesulfonic acid-KOH (HEPES-KOH) adjusted to pH 7.9, 1.5 mM MgCl2, 10 mM KCl, 0.5 mM dithiothreitol and 0.2 mM phenylmethylsulfonyl fluoride (PMSF). The suspension is left on ice for 10 min and then placed in the vortex for 10 s. The samples were centrifuged for 60 s, subsequently discarding the supernatant fraction. The obtained pellet was re-suspended in 60 μL of cold C buffer (20 mM HEPES-KOH adjusted to pH 7.9, 25% glycerol, 420 mM NaCl, 1.5 mM MgCl2, 0.2 mM EDTA, dithiothreitol 0.5 mM and 0.2 mM PMSF) and placed on ice for 20 min for saline precipitation. Cell debris is removed by centrifugation for 120 s at 1500 rpm at 4 °C and the supernatant fraction, which contains the DNA binding proteins, is stored at minus 20 °C. For the analysis of α–SMA and procollagen type I expression levels, 3×10^5 CFs seeded in 35 mm plates were used, which were incubated together with inhibitor compounds at a 5 μM, in the absence/presence of TGF–β1 (5 ng/mL) for 48 h. To obtain the total proteins, the CFs were washed three times with cold PBS, then scraped and lysed with 50 μL of radio inmuno-precipitation assay (RIPA) lysis buffer (10 mM Tris–HCl pH 7.2, 5 mM EDTA, 150 mM NaCl, Triton X–100 1%, sodium dodecyl sulfate (SDS) 0.1%, deoxycholate 1%, leupeptin 2 μg/mL, aprotinin 10mM, PMSF 1mM and Na3VO4 100μM). The solution was centrifuged for 15 min at 10,000 rpm and at 4 °C. The supernatant fraction containing the total proteins was stored at minus 20 °C. The concentration of proteins obtained was determined by spectrophotometry at 570 nm, using the Bradford method (Bio-Rad, Hercules, CA, USA).
# (§2) CFs proteins (25 μg), were subjected to 10% sodium dodecyl sulfate-polyacrylamide gel electrophoresis and finally transferred onto a nitrocellulose membrane (Millipore, Billerica, MA, USA). The membrane was washed twice with tris–buffered saline solution containing 0.1% Tween 20 (TBST). After being blocked with TBST containing 5% nonfat milk for 40 min, the membrane was incubated with primary antibodies in TBST/1% nonfat milk at 4 °C overnight. The membrane was washed three times with TBST for a total of 15 min and then incubated with primary antibodies (ac–H4, H4 total, α-SMA, procollagen type I and GAPDH). Then the membrane was incubated with goat anti–rabbit or anti-mouse IgG antibodies conjugated with horseradish (diluted 1:1000) for 1 h at room temperature. Signals were developed with ECL reagents and exposure to photographic film.
# Figure 4 CTz non–substituted inhibit α-SMA expression in cardiac fibroblasts. (A) CFs were exposed to 5a, 6a, 7a and 8a at 5 μM for 48 h. […] (B) CFs were exposed to 5a, 6a, 7a and 8a at 5 μM for 48 h in presence of TGF–β1 ([…]). α-SMA expression levels were measured by western blot. GAPDH was used as control load.
# [2] = test system: procollagen type I expression in CFs; assay: Procollagen type I expression levels in cardiac fibroblasts, western blot; type: cell-based, rat; settings: derivatives 5 μM (TSA 0.1 μM) for 48 h in presence of TGF-β1
# Experimental: In CFs collagen type I secretion is a hallmark of cardiac fibrosis development, which is regulated by HDACs. […] For this purpose, a fixed concentration of 5a, 6a, 7a and 8a derivatives in presence/absence of TGF-β1 were studied, and procollagen type I expression levels were measured by using the western blot technique. TSA was used as control and also for comparative purposes. In Figure 5 (A and B), in the upper panel representative photographs of procollagen type I expression level and GAPDH (used as charge control) are shown, whereas in the lower panel the graphic analyses are observed.
# as §1, §2
# Figure 5 CTz non–substituted inhibit procollagen type I expression levels in cardiac fibroblasts. […] (B) CFs were exposed to 5a, 6a, 7a and 8a at 5 μM for 48 h in presence of TGF–β1. Procollagen type I expression levels were measured by western blot. GAPDH was used as control load.
structure (smiles),measurement,setting,value
"CC(/C=C/C(=O)NO)=C\[C@@H](C)C(=O)c1ccc(N(C)C)cc1 [TSA, trichostatin A, reference compound]",IC50,[1],5 ± 0.12 nM
same,α-SMA expression levels induced by TGF-β1,α-SMA expression in CFs,decrease close to control levels
same,procollagen type I expression levels induced by TGF-β1,[2],"decreased, close to control levels"
